In brackets after ≈: the same amount, converted by molar mass. Where two headings read alike, the source gives them in different places.

The subject of one data set is C. jejuni strain H840. The data set can be described thus: MIC determination, liquid microdilution, C. jejuni. The data set is classed as cell-based. The note with it: Campylobacter jejuni, H840, 27 h, read-out: MIC C. jejuni. On the technique in general: Broth dilution looks for growth in wells or tubes with falling amounts of substance.
Another data set relates to C. difficile VPI 10463. In words: MIC determination, agar dilution, C. difficile. To be noted: Clostridioides difficile, VPI10463, 18 h, read-out: MIC C. difficile. The data set is classed as cell-based, Clostridium difficile.
Another data set relates to Human foreskin cells. In words: Human foreskin cell toxicity. The data set is classed as cell-based.
Data set [1] can be described thus: Human foreskin cell toxicity. The class given is cell-based. To be noted: human, human foreskin cells.
A further data set has as its system H. pylori strain 26695. The data set can be described thus: MIC determination, liquid microdilution, H. pylori. The data set is classed as cell-based. The note with it: Helicobacter pylori, 26695, 27 h, read-out: MIC H. pylori.
A further data set has as its system S. epidermidis. In words: MIC determination, liquid microdilution, S. epidermidis. To be noted: Staphylococcus epidermidis, read-out: MIC S. epidermidis. The class given is cell-based.
The next data set concerns H. pylori PFOR enzyme. In words: Direct PFOR enzyme assay. To be noted: [Drug] = 40 μM. The class given is biochemical.
The test system of a further data set is S. aureus (MRSA). The data set can be described thus: MIC determination, liquid microdilution, S. aureus. To be noted: Staphylococcus aureus, read-out: MIC S. aureus (MRSA). The class given is cell-based.
The test system of a further data set is E. coli. The data set can be described thus: MIC against E. coli. To be noted: Escherichia coli. The data set is classed as cell-based.

For `O=C(Nc1ncc([N+](=O)[O-])s1)c1cccc(C(F)(F)F)c1` [Analogue 23, N-(5-Nitrothiazol-2-yl)-3-(trifluoromethyl)benzamide], the MIC was 4.7 µM (≈ 1.49 µg/mL) in the data set on C. jejuni strain H840, 0.5 µM (≈ 0.159 µg/mL) in the data set with C. difficile VPI 10463, 3.5 µM (≈ 1.11 µg/mL) in the data set with H. pylori strain 26695 and 12.6 µM (≈ 4 µg/mL) with S. epidermidis. Also, the “toxicity to human foreskin cells (in words)” value in the data set with Human foreskin cells is “not toxic”. The CC50 at 48 h in data set [1] is more than 50.4 µM. The “PFOR Inhibition” value with H. pylori PFOR enzyme was determined as 41.5 ± 5.5%.
Turning to `O=C(Nc1ncc([N+](=O)[O-])s1)c1cc(C(F)(F)F)cc(C(F)(F)F)c1` [Analogue 38, N-(5-Nitrothiazol-2-yl)-3,5-bis(trifluoromethyl)benzamide], the MIC in the data set on C. jejuni strain H840 worked out at 41.5 µM (≈ 16 µg/mL); with S. aureus (MRSA), 2.6 µM (≈ 1 µg/mL); in the data set on H. pylori strain 26695, 5.2 µM (≈ 2 µg/mL); in the data set with S. epidermidis, 1.9 µM (≈ 0.732 µg/mL). Further, the “toxicity to human foreskin cells (in words)” value with Human foreskin cells is on record as “particularly toxic”. In data set [1], this compound gave a CC50 at 48 h of 10.4 µM.
On to `CC(=O)Oc1ccccc1C(=O)Nc1ncc([N+](=O)[O-])s1` [Nitazoxanide, reference compound], for which the MIC in the data set on C. jejuni strain H840 is 39.1 µM (≈ 12 µg/mL); in the data set with E. coli (read-out: E. coli MIC) it was more than 104 µM; in the data set with E. coli (read-out: E. coli MIC, stated in text) it was more than 32 µg/mL; with C. difficile VPI 10463, 1.2 µM (≈ 0.369 µg/mL); with S. aureus (MRSA), 39.1 µM (≈ 12 µg/mL); in the data set on H. pylori strain 26695, 13 µM (≈ 3.99 µg/mL). In addition, the MIC in the data set on S. epidermidis turned out to be 52.1 µM (≈ 16 µg/mL). In [1], this compound returned a CC50 at 48 h of more than 52.1 µM. Also, the “PFOR Inhibition” value was 54 ± 7% in the data set on H. pylori PFOR enzyme (listed as 1, 40 µM) and “[c] For PFOR inhibition assays, drug concentration was fixed at 40 μM which bench marks NTZ at ~50% inhibition” in the data set on H. pylori PFOR enzyme (listed as NTZ, 40 µM).

A word on the MIC: it is the least concentration at which growth counts as inhibited. The CC50 is the concentration at which the toxic effect on the cells reaches its halfway point.

For the origin of these results see PMC3089805 (Chemmedchem, 2010).
